Source: patent publication US8461152B2, “Arylcyclohexylethers of dihydrotetraazabenzoazulenes” (Hoffmann-La Roche Inc., priority 2008, dated 2013)
Structures can show the parent of a compound that is named as a salt.

The molecules below were run against T1, human V1a receptor (Homo sapiens, UniProt P37288) (assay: human V1a receptor binding studies (SPA, 3H-Vasopressin, membranes of transfected HEK293 cells)). Conditions: displacement of 3H-Vasopressin, HEK293 cell membranes, 1 h at room temperature; Ki by Cheng-Prussoff equation; read-out: pKi (hV1a) (converted).
T1 construct: expressed in transfected cells; host or cells: HEK293 cells, transiently transfected; membrane preparation
Protocol: The human V1a receptor was cloned by RT-PCR from total human liver RNA. The coding sequence was subcloned in an expression vector after sequencing to confirm the identity of the amplified sequence. […] Cell membranes were prepared from HEK293 cells transiently transfected with the expression vector and grown in 20 liter fermenters with the following protocol.
50 g of cells are resuspended in 30 ml freshly prepared ice cold Lysis buffer (50 mM HEPES, 1 mM EDTA, 10 mM magnesium dichloride adjusted to pH=7.4+complete cocktail of protease inhibitor (Roche Diagnostics)). Homogenized with Polytron for 1 min and sonicated on ice for 2×2 minutes at 80% intensity (Vibracell sonicator). The preparation is centrifuged 20 min at 500 g at 4° C., the pellet is discarded and the supernatant centrifuged 1 hour at 43'000 g at 4° C. (19'000 rpm). The pellet is resuspended in 12.5 ml Lysis buffer+12.5 ml Sucrose 20% and homogenized using a Polytron for 1-2 min. The protein concentration is determined by the Bradford method and aliquots are stored at −80° C. until use. For binding studies 60 mg Yttrium silicate SPA beads (Amersham) are mixed with an aliquot of membrane in binding buffer (50 mM Tris, 120 mM sodium chloride, 5 mM potassium chloride, 2 mM Calcium dichloride, 10 mM magnesium dichloride) for 15 minutes with mixing. 50 μl of bead/membrane mixture is then added to each well of a 96 well plate, followed by 50 μl of 4 nM 3H-Vasopressin (American Radiolabeled Chemicals). For total binding measurement 100 μl of binding buffer are added to the respective wells, for non-specific binding 100 μl of 8.4 mM cold vasopressin and for compound testing 100 μl of a serial dilution of each compound in 2% dimethyl sulfoxide. The plate is incubated 1 h at room temperature, centrifuged […] at 1000 g and counted on a Packard Top-Count. Non-specific binding counts are subtracted from each well and data is normalized to the maximum specific binding set at 100%. To calculate an IC 50 the curve is fitted using a non-linear regression model (XLfit) and the Ki is calculated using the Cheng-Prussoff equation.

T1 sequence (P37288 whole entry): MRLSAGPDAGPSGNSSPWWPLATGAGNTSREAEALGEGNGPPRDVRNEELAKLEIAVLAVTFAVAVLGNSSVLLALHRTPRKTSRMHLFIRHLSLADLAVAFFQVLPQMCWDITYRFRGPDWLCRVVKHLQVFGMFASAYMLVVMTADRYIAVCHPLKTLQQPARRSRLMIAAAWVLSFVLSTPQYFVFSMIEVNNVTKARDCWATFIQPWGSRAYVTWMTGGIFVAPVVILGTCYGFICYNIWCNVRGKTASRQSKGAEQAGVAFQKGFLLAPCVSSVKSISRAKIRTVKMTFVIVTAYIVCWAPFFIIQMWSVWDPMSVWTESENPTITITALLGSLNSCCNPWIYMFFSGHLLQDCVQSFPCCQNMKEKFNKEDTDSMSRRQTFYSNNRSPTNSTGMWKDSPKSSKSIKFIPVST

Row | SMILES | Ki [nM]
1 | CC(C)(C)OC(=O)N1Cc2cc(Cl)ccc2-n2c(nnc2[C@H]2CC[C@H](Oc3ccccc3)CC2)C1 [Example 1, trans-8-Chloro-1-(4-phenoxy-cyclohexyl)-4H,6H-2,3,5,10b-tetraaza-benzoazulene-5-carboxylic acid tert-butyl ester] | 3.24
2 | Clc1ccc2c(c1)CNCc1nnc([C@H]3CC[C@H](Oc4ccccc4)CC3)n1-2 [Example 2, trans-8-Chloro-1-(4-phenoxy-cyclohexyl)-5,6-dihydro-4H-2,3,5,10b-tetraaza-benzoazulene hydrochloride] | 4.37
3 | CN1Cc2cc(Cl)ccc2-n2c(nnc2[C@H]2CC[C@H](Oc3ccccc3)CC2)C1 [Example 3, trans-8-Chloro-5-methyl-1-(4-phenoxy-cyclohexyl)-5,6-dihydro-4H-2,3,5,10b-tetraaza-benzo[e]azulene] | 1.58
4 | CC(=O)N1Cc2cc(Cl)ccc2-n2c(nnc2[C@H]2CC[C@H](Oc3ccccc3)CC2)C1 [Example 4, trans-1-[8-Chloro-1-(4-phenoxy-cyclohexyl)-4H,6H-2,3,5,10b-tetraaza-benzoazulen-5-yl]-ethanone] | 1.41
5 | CS(=O)(=O)N1Cc2cc(Cl)ccc2-n2c(nnc2[C@H]2CC[C@H](Oc3ccccc3)CC2)C1 [Example 5, trans-8-Chloro-5-methanesulfonyl-1-(4-phenoxy-cyclohexyl)-5,6-dihydro-4H-2,3,5,10b-tetraaza-benzoazulene] | 1.7
6 | OCCN1Cc2cc(Cl)ccc2-n2c(nnc2[C@H]2CC[C@H](Oc3ccccc3)CC2)C1 [Example 6, trans-2-[8-Chloro-1-(4-phenoxy-cyclohexyl)-4H,6H-2,3,5,10b-tetraaza-benzoazulen-5-yl]-ethanol] | 1.58
7 | CC(C)N1Cc2cc(Cl)ccc2-n2c(nnc2[C@H]2CC[C@H](Oc3ccccc3)CC2)C1 [Example 7, trans-8-Chloro-5-isopropyl-1-(4-phenoxy-cyclohexyl)-5,6-dihydro-4H-2,3,5,10b-tetraaza-benzoazulene] | 1.7
8 | CN(C)S(=O)(=O)N1Cc2cc(Cl)ccc2-n2c(nnc2[C@H]2CC[C@H](Oc3ccccc3)CC2)C1 [Example 8, trans-8-Chloro-1-(4-phenoxy-cyclohexyl)-4H,6H-2,3,5,10b-tetraaza-benzoazulene-5-sulfonic acid dimethylamide] | 2
9 | Clc1ccc2c(c1)CN(Cc1ccccn1)Cc1nnc([C@H]3CC[C@H](Oc4ccccc4)CC3)n1-2 [Example 9, trans-8-Chloro-1-(4-phenoxy-cyclohexyl)-5-pyridin-2-ylmethyl-5,6-dihydro-4H-2,3,5,10b-tetraaza-benzoazulene] | 1.82
10 | CN(C)CC(=O)N1Cc2cc(Cl)ccc2-n2c(nnc2[C@H]2CC[C@H](Oc3ccccc3)CC2)C1 [Example 10, trans-1-[8-Chloro-1-(4-phenoxy-cyclohexyl)-4H,6H-2,3,5,10b-tetraaza-benzoazulen-5-yl]-2-dimethylamino-ethanone] | 2.09
11 | CC(C)(C)OC(=O)N1Cc2cc(F)ccc2-n2c(nnc2[C@H]2CC[C@H](Oc3ccccc3)CC2)C1 [Example 11, trans-8-Fluoro-1-(4-phenoxy-cyclohexyl)-4H,6H-2,3,5,10b-tetraaza-benzo[e]azulene-5-carboxylic acid tert-butyl ester] | 5.5
12 | CN1Cc2cc(F)ccc2-n2c(nnc2[C@H]2CC[C@H](Oc3ccccc3)CC2)C1 [Example 13, trans-8-Fluoro-5-methyl-1-(4-phenoxy-cyclohexyl)-5,6-dihydro-4H-2,3,5,10b-tetraaza-benzoazulene] | 5.37
13 | CC(C)(C)OC(=O)N1Cc2cc(Cl)ccc2-n2c(nnc2[C@H]2CC[C@@H](Oc3ccccc3)CC2)C1 [Example 14, cis-8-Chloro-1-(4-phenoxy-cyclohexyl)-4H,6H-2,3,5,10b-tetraaza-benzoazulene-5-carboxylic acid tert-butyl ester] | 9.33
14 | CN1Cc2cc(Cl)ccc2-n2c(nnc2[C@H]2CC[C@@H](Oc3ccccc3)CC2)C1 [Example 16, cis-8-Chloro-5-methyl-1-(4-phenoxy-cyclohexyl)-5,6-dihydro-4H-2,3,5,10b-tetraaza-benzoazulene] | 2.88
15 | CC(C)(C)OC(=O)N1Cc2cc(Cl)ccc2-n2c(nnc2[C@H]2CC[C@H](Oc3ccc(F)cc3)CC2)C1 [Example 17, trans-8-Chloro-1-[4-(4-fluoro-phenoxy)-cyclohexyl]-4H,6H-2,3,5,10b-tetraaza-benzoazulene-5-carboxylic acid tert-butyl ester] | 3.72
16 | Fc1ccc(O[C@H]2CC[C@H](c3nnc4n3-c3ccc(Cl)cc3CNC4)CC2)cc1 [Example 18, trans-8-Chloro-1-[4-(4-fluoro-phenoxy)-cyclohexyl]-5,6-dihydro-4H-2,3,5,10b-tetraaza-benzo[e]azulene hydrochloride] | 9.55
17 | CN1Cc2cc(Cl)ccc2-n2c(nnc2[C@H]2CC[C@H](Oc3ccc(F)cc3)CC2)C1 [Example 19, trans-8-Chloro-1-[4-(4-fluoro-phenoxy)-cyclohexyl]-5-methyl-5,6-dihydro-4H-2,3,5,10b-tetraaza-benzoazulene] | 3.09
18 | CC(C)(C)OC(=O)N1Cc2cc(Cl)ccc2-n2c(nnc2[C@H]2CC[C@H](Oc3ccc(C#N)cc3)CC2)C1 [Example 20, trans-8-Chloro-1-[4-(4-cyano-phenoxy)-cyclohexyl]-4H,6H-2,3,5,10b-tetraaza-benzo[e]azulene-5-carboxylic acid tert-butyl ester] | 7.76
19 | CN1Cc2cc(Cl)ccc2-n2c(nnc2[C@H]2CC[C@H](Oc3ccc(C#N)cc3)CC2)C1 [Example 22, trans-4-[4-(8-Chloro-5-methyl-5,6-dihydro-4H-2,3,5,10b-tetraaza-benzo[e]azulen-1-yl)-cyclohexyloxy]-benzonitrile] | 8.91
20 | CC(C)(C)OC(=O)N1Cc2cc(Cl)ccc2-n2c(nnc2[C@H]2CC[C@H](Oc3ccc(C(F)(F)F)cc3)CC2)C1 [Example 23, trans-8-Chloro-1-[4-(4-trifluoromethyl-phenoxy)-cyclohexyl]-4H,6H-2,3,5,10b-tetraaza-benzo[e]azulene-5-carboxylic acid tert-butyl ester] | 9.12
21 | CC(C)(C)OC(=O)N1Cc2cc(Cl)ccc2-n2c(nnc2[C@H]2CC[C@H](Oc3cccc(Cl)c3)CC2)C1 [Example 26, trans-8-Chloro-1-[4-(3-chloro-phenoxy)-cyclohexyl]-4H,6H-2,3,5,10b-tetraaza-benzoazulene-5-carboxylic acid tert-butyl ester] | 4.17
22 | CN1Cc2cc(Cl)ccc2-n2c(nnc2[C@H]2CC[C@H](Oc3cccc(Cl)c3)CC2)C1 [Example 28, trans-8-Chloro-1-[4-(3-chloro-phenoxy)-cyclohexyl]-5-methyl-5,6-dihydro-4H-2,3,5,10b-tetraaza-benzoazulene] | 3.09
23 | COc1cccc(O[C@H]2CC[C@H](c3nnc4n3-c3ccc(Cl)cc3CN(C(=O)OC(C)(C)C)C4)CC2)c1 [Example 29, trans-8-Chloro-1-[4-(3-methoxy-phenoxy)-cyclohexyl]-4H,6H-2,3,5,10b-tetraaza-benzoazulene-5-carboxylic acid tert-butyl ester] | 4.68
24 | COc1cccc(O[C@H]2CC[C@H](c3nnc4n3-c3ccc(Cl)cc3CNC4)CC2)c1 [Example 30, trans-8-Chloro-1-[4-(3-methoxy-phenoxy)-cyclohexyl]-5,6-dihydro-4H-2,3,5,10b-tetraaza-benzo[e]azulene hydrochloride] | 3.31
25 | COc1cccc(O[C@H]2CC[C@H](c3nnc4n3-c3ccc(Cl)cc3CN(C)C4)CC2)c1 [Example 31, trans-8-Chloro-1-[4-(3-methoxy-phenoxy)-cyclohexyl]-5-methyl-5,6-dihydro-4H-2,3,5,10b-tetraaza-benzoazulene] | 2.09
26 | CN1Cc2cc(Cl)ccc2-n2c(nnc2[C@H]2CC[C@H](Oc3cccc(C#N)c3)CC2)C1 [Example 34, trans-3-[4-(8-Chloro-5-methyl-5,6-dihydro-4H-2,3,5,10b-tetraaza-benzoazulen-1-yl)-cyclohexyloxy]-benzo nitrile] | 2.69
27 | Cc1cccc(O[C@H]2CC[C@H](c3nnc4n3-c3ccc(Cl)cc3CN(C(=O)OC(C)(C)C)C4)CC2)c1 [Example 35, trans-8-Chloro-1-(4-m-tolyloxy-cyclohexyl)-4H,6H-2,3,5,10b-tetraaza-benzo[e]azulene-5-carboxylic acid tert-butyl ester] | 4.9
28 | Cc1cccc(O[C@H]2CC[C@H](c3nnc4n3-c3ccc(Cl)cc3CNC4)CC2)c1 [Example 36, trans-8-Chloro-1-(4-m-tolyloxy-cyclohexyl)-5,6-dihydro-4H-2,3,5,10b-tetraaza-benzo[e]azulene hydrochloride] | 7.59
